The test system of data set [1] is Escherichia coli ATCC 25922. Nature of the data set: Antibacterial activity, MIC by double-microdilution method. Particulars: for MIC: Escherichia coli. The class given is cell-based. As for the experimental part: (§1) In order to compare the observed aminoglycoside-induced stop codon read-through activity in mammalian cells to antibacterial activity thereof, Compounds 1-9 were further investigated as antibacterial agents against both Gram-negative (E. coli) and Gram-positive (Bacillus subtilis) bacteria, and the minimal inhibitory concentration (MIC) values were determined by using a microdilution assay with paromomycin and gentamicin as controls, and the results are presented in Table 18 hereinabove.
(§2) The bacterial strains used were Escherichia coli ATCC 25922, and Bacillus Subtilis ATCC 6633. […] All the experiments were performed in triplicates and analogous results were obtained in two to four different experiments.

Data set [2] has as its system Bacillus Subtilis ATCC 6633. The data set is described as above. The data set is classed as cell-based. Particulars: Bacillus subtilis. As to the method: as §1, §2
In data set [3] the test system is R3X nonsense mutation (a premature UGA C stop codon) of the PCDH15 gene. The data set is described as follows: In vitro suppression and translation, pDB650-R3X reporter plasmid in rabbit reticulocyte lysate coupled transcription/translation system. The data set is classed as biochemical, human. Particulars: for Conc. (concentration at which maximal suppression level was observed) / Supp. level (%), maximal in-vitro mutation suppression: R3X mutation; for Conc. (concentration at which maximal suppression level was observed): in vitro; for Supp. level (%), maximal in-vitro mutation suppression: 35-kDa product out of total protein; for Supp. level (%), maximal in-vitro mutation suppression / Trans. level (%): at Conc. of maximal suppression; for Trans. level (%): total protein relative to no compound. As for the experimental part: Initially, Compounds 1-9 were tested for their ability to suppress this nonsense mutation in vitro, using a reporter construct carrying the R3X nonsense mutation (a premature UGA C stop codon) of the PCDH15 gene. Mutations in the PCDH15 gene which encodes protocardherin 15, cause type 1 Usher syndrome (USH1), which is characterized by profound prelingual hearing loss, vestibular areflexia, and prepubertal onset of retinitis pigmentosa (RP). Four different PCDH15 USH1-causing nonsense mutations, R3X, R245X, R643X, and R929X, have been reported in humans.
Suppression of nonsense mutations by Compounds 1-9 was tested in vitro using a reporter plasmid harboring the R3X mutation of the PCDH15 gene. To create this plasmid, the oligonucleotides 5′-[…]-3′ (SEQ ID NO: 1) and 5′-[…]-3′ (SEQ ID NO: 2) were annealed to each other and inserted into the BamHI and HindIII sites of plasmid pDB650 [6].
The resulting reporter plasmid pDB650-R3X contained a TGA C nonsense mutation between a 25-kDa polypeptide encoding open reading frame (ORF) and a 10-kDa polypeptide encoding ORF.
The plasmid was transcribed and translated in a rabbit reticulocyte lysate coupled transcription/translation system (Promega) in the presence of [^35S]-methionine, and the reaction products were separated by SDS-PAGE and quantified using Phosphorlmager analysis. The mutation suppression level was calculated as the relative proportion of the 35-kDa product out of total protein (the sum of 35-kDa and 25-kDa), and the translation level was calculated as the relative proportion of the total protein at each tested compound concentration out of the total protein without the presence of the tested compounds.
The tested concentrations of paromomycin were 0, 5, 10, 20, 30 and 40 μg/ml, tested concentrations of gentamicin were 0, 5, 10, 20, and 30 μg/ml, and the tested concentrations of Compounds 1-9 were in the range of 0-160 μg/ml.
Compound 37 was tested for its ability to suppress a nonsense mutation in-vitro, using a reporter construct carrying either R3X nonsense mutation (a premature UGA C stop codon) or R245X nonsense mutation (a premature UGA A stop codon) of the PCDH15 gene, using gentamicin, paromomycin and Compound 3 as standards and following the experimental procedures presented hereinabove.
For the rat-PGM-β-Gal in vitro readthrough system, the pDB series of reporter plasmids harbor the following elements under SP6 promoter control: an open reading frame (ORF) derived from the 5′ end of the rat PGM gene, which encodes a 25-kDa polypeptide; another small ORF, encoding the 10-kDa alpha complementation region of β-galactosidase, and terminated by tandem, in-frame stop codons (UAA UAG); located between the two ORFs is a DNA fragment derived from PCDH15 cDNA, including the tested stop mutation or the corresponding wild-type codon, and six upstream and downstream flanking codons (except for p.R3X constructs, in which there are only two upstream PCDH15-flanking codons). The fragments were created by annealing the following couples of complementary oligonucleotides:
The fragments were inserted into the BamHI and HindIII restriction sites of the pDB read-through construct. Reporter plasmids harboring each of the four nonsense mutations and the corresponding wt alleles were in vitro transcribed and translated using the TNT SP6 Coupled Reticulocyte lysate System (Promega) in the presence of [^35S]-methionine and increasing concentrations of aminoglycosides as described previously. […] The degree of suppression was calculated as the relative proportion of the 35-kDa product out of total reaction products (35-kDa and 25-kDa polypeptides). The results are averages of at least three independent experiments.

Data set [4] has as its system original p2Luc plasmid containing a TGA C nonsense mutation. Nature of the data set: Dual luciferase in vitro transcription/translation assay. The data set is classed as biochemical. The source says:
(§3) DNA fragments derived from the subsequent genes, including the tested stop mutation or the corresponding wild-type codon, and four upstream and downstream flanking codons (except for p.R3X constructs, in which there are only two upstream PCDH15-flanking codons) were cloned into p2Luc plasmid between renilla and firefly luciferase genes as described previously. The formed plasmids, as well as the original p2Luc plasmid containing a TGA C nonsense mutation, were transcribed and translated in vitro and the stop codon suppression efficiency was calculated as described previously.
(§4) For the dual luciferase in vitro transcription/translation assay, DNA fragments derived from PCDH15, CFTR, Dystrophin and IDUA cDNAs, including the tested stop mutation or the corresponding wild-type codon, and four upstream and downstream flanking codons (except for p.R3X constructs, in which there are only two upstream PCDH15-flanking codons) were created by annealing the couples of complementary oligonucleotides presented above.
(§5) Fragments were inserted into the SalI and SacI restriction sites of the p2Luc plasmid between renilla and firefly luciferase genes. The afforded plasmids, as well as the original p2Luc plasmid containing a TGA C nonsense mutation, were transcribed and translated using the TNT Reticulocyte Lysate Quick Coupled Transcription/Translation System (Promega™). Each transcription/translation reaction (10 μl, total volume) contained 8 μl TNT T7 Quick Master Mix, 0.2 μl methionine (1 mM), 0.8 μl DNA template (2 μg/μl), 1 μl of either water (blank) or 1 μl solution of increasing concentrations of the tested aminoglycosides in water. Luciferase activity was determined following 90 minutes incubation at 30° C. using the Dual Luciferase Reporter Assay System (Promega™). The total luminescence produced by each one of the proteins was measured separately using the FLx800 multidetection plate reader (Bio-Tek) and the stop codon suppression efficiency was calculated as described previously. The results are averages of at least three independent experiments.

Data set [5] concerns R3X (PCDH15, Usher Syndrome). The data set is described as above. The class given is biochemical, human.
Description: as §3, §4, §5

Data set [6] deals with human fibroblast cells. The settings on record: cited from earlier work.
The conditions of data set [7]: available toxicity data on aminoglycosides; unit inferred; cited from earlier work.
Where [8] appears, read: ATCC25922, ATCC 25922, read-out: MIC E. coli.
Where [9] appears, read: ATCC6633, ATCC 6633, read-out: MIC B. Subtilis.

≈ marks a conversion by molar mass, not a printed value. Like-named read-outs stand apart in the source and are kept apart here.

Regarding `NC1CC(N)[C@@H](O[C@H]2OC(CO)[C@@H](O)C(O)C2N)C(O)C1O` (some centres unmarked) [Compound 1, Paromamine], the MIC in data set [1] (ATCC25922, read-out: MIC E. coli) is 512 µg/mL (≈ 1580 µM). For the same molecule, in data set [2] (ATCC6633, read-out: MIC B. Subtilis), the MIC came to 128 µg/mL (≈ 396 µM). In addition, in data set [3], the “Conc. (concentration at which maximal suppression level was observed)” value was 80 µg/mL; the “Supp. level (%), maximal in-vitro mutation suppression” value (“Supp. level (%)” for short) came to 6.2%; the “Trans. level (%)” value was determined as 74 ± 15%. Besides, in data set [3] (listed as Paromamine), the “Supp. level (%)” value was determined as 6.2 ± 0.2%. The “Conc. (μM) at which maximum suppression level was achieved” value in data set [4] (dual luciferase in vitro system, all constructs of Table 21) came to 490 µM. In data set [4] (p2luc), the “Maximum in vitro suppression (%) UGAC” value turned out to be 1.1 ± 0.1%. Besides, the “Maximum in vitro suppression (%) R3X” value in data set [5] is listed as 0.6 ± 0.1%.
`NC1C[C@@H](N)[C@@H](O)[C@@H](O[C@@H]2O[C@H](CO)[C@H](O)C2O)[C@@H]1O[C@H]1OC(CO)[C@@H](O)[C@H](O)[C@@H]1N` (stereo partly drawn) [Compound 2, (3S,4R,5S,6S)-5-amino-6-((1R,2R,3R,4R)-4,6-diamino-2-((2S,4R,5R)-3,4-dihydroxy-5-(hydroxymethyl)-tetrahydrofuran-2-yloxy)-3-hydroxycyclohexyloxy)-2-(hydroxymethyl)-tetrahydro-2H-pyran-3,4-diol]: in data set [1] (setting [8]), the MIC was 256 µg/mL (≈ 562 µM). Moreover, in data set [2] (setting [9]), the MIC was found to be 64 µg/mL (≈ 141 µM). Besides, in data set [3], the “Conc. (concentration at which maximal suppression level was observed)” value was 80 µg/mL; the “Supp. level (%)” value was found to be 1.3 ± 0.1%; the “Trans. level (%)” value was 100 ± 10%.
For `NC1C[C@@H](N)[C@@H](O[C@@H]2O[C@H](CO)[C@H](O)C2O)[C@@H](O)[C@@H]1O[C@H]1OC(CO)[C@@H](O)[C@H](O)[C@@H]1N` (stereo partly drawn) [Compound 4, (3S,4R,5S,6S)-5-amino-6-((1R,2S,3R,4R)-4,6-diamino-3-((2R,4R,5R)-3,4-dihydroxy-5-(hydroxymethyl)-tetrahydrofuran-2-yloxy)-2-hydroxycyclohexyloxy)-2-(hydroxymethyl)-tetrahydro-2H-pyran-3,4-diol], the MIC in data set [1] (setting [8]) was determined as 256 µg/mL (≈ 562 µM). In data set [2] (setting [9]), the MIC came out at 96 µg/mL (≈ 211 µM). For the same molecule, in data set [3], the “Conc. (concentration at which maximal suppression level was observed)” value turned out to be 80 µg/mL; the “Supp. level (%)” value was determined as 1.5 ± 0.1%; the “Trans. level (%)” value is 74 ± 7%.
The matching figures for `NC[C@H]1O[C@@H](OC2C(O)[C@H](O[C@H]3OC(CO)[C@@H](O)C(O)C3N)C(N)C[C@H]2N)C(O)C1O` (some centres unmarked) [Compound 5]: greater than 512 µg/mL, 192 µg/mL (≈ 422 µM), 80 µg/mL, 4.4 ± 2% and 75 ± 9%.
The matching figures for `NC[C@H]1O[C@@H](OC2C(N)[C@@H](O[C@@H]3C(N)C[C@@H](N)C(O)C3O)OC(CO)[C@H]2O)C(O)C1O` (some centres unmarked) [Compound 7]: 192 µg/mL (≈ 422 µM), 48 µg/mL (≈ 106 µM), 80 µg/mL, 2.9 ± 2% and 98 ± 10%.
Consider `NC1C(N)[C@H](O)C(CO)O[C@@H]1O[C@@H]1C(N)C[C@@H](N)C(O)C1O` (some centres unmarked) [Compound 8], for which, in data set [1] (setting [8]), the minimal inhibitory concentration (MIC) was determined as 192 µg/mL (≈ 596 µM). Moreover, the “fold lower antimicrobial activity as compared to paromomycin” value in data set [1] (from Table 18, E. coli and B. subtilis) is 6-16 fold. Besides, the minimal inhibitory concentration (MIC) in data set [2] (setting [9]) turned out to be 48 µg/mL (≈ 149 µM). Further, in data set [3], the “Conc. (concentration at which maximal suppression level was observed)” value was determined as 80 µg/mL; the “Supp. level (%)” value turned out to be 2.0 ± 2%; the “Trans. level (%)” value is 71 ± 7%.
For the molecule `NC1C(OCOC2C(N)[C@H](O[C@H]3C(N)C[C@H](N)C(O)C3O)OC(CO)[C@@H]2O)[C@H](O)C(CO)O[C@@H]1O[C@@H]1C(N)C[C@@H](N)C(O)C1O` (some centres unmarked) [Compound 9], the MIC in data set [1] (setting [8]) was 96 µg/mL (≈ 146 µM). Besides, the minimal inhibitory concentration (MIC) in data set [2] (setting [9]) stood at 48 µg/mL (≈ 72.9 µM). In addition, in data set [3], the “Conc. (concentration at which maximal suppression level was observed)” value was determined as 80 µg/mL; the “Supp. level (%)” value is listed as less than 1%; the “Trans. level (%)” value was 22 ± 2%.
For `CN[C@@H]1[C@@H](O)[C@@H](O[C@@H]2[C@@H](O)[C@H](O[C@H]3O[C@H]([C@@H](C)O)[C@@H](O)[C@H](O)[C@H]3N)[C@@H](N)C[C@H]2N)OC[C@]1(C)O` [Compound G-418, G-418], the “LD50 against human fibroblast cells” value in data set [6] (ref [49]) was 0.04 mg/mL.
For `NCCC(O)C(=O)NC1CC(N)C(OC2OC(CN)C(O)C(O)C2N)C(O)C1O` (centres unmarked) [N1-AHB-neamine], the LD50 in data set [7] was 260 mg/kg.
For the molecule `NCC[C@H](O)C(=O)N[C@@H]1C[C@H](N)[C@@H](O[C@H]2O[C@H](CN)[C@@H](O)[C@H](O)[C@H]2O)[C@H](O)[C@H]1O[C@H]1O[C@H](CO)[C@@H](O)[C@H](N)[C@H]1O` [amikacin], in data set [7], the LD50 is 300 mg/kg.
In the case of `NC[C@H]1O[C@H](O[C@H]2[C@H](O)[C@@H](O[C@H]3O[C@H](CO)[C@@H](O)[C@H](N)[C@H]3O)[C@H](N)C[C@@H]2N)[C@H](N)[C@@H](O)[C@@H]1O` [kanamycin B], in data set [7], the LD50 is 132 mg/kg.
`N[C@@H]1[C@@H](O)[C@@H](O[C@@H]2[C@@H](O)[C@H](O[C@H]3O[C@H](CO)[C@@H](O)[C@H](O)[C@H]3N)[C@@H](N)C[C@H]2N)O[C@H](CO)[C@H]1O` [kanamycin C]: the LD50 in data set [7] was 225 mg/kg.
Regarding `NC[C@H]1O[C@H](O[C@H]2[C@H](O)[C@@H](O[C@H]3O[C@H](CO)[C@@H](O)[C@H](N)[C@H]3O)[C@H](N)C[C@@H]2N)[C@H](O)[C@@H](O)[C@@H]1O` [kanamycin], in data set [6], the “LD50 against human fibroblast cells” value is 2.5 to 5.0 mg/mL.
As to `NC[C@H]1O[C@H](O[C@H]2[C@H](O)[C@@H](O)[C@H](N)C[C@@H]2N)[C@H](N)[C@@H](O)[C@@H]1O` [neamine], in data set [7], the LD50 is 125 mg/kg.
